Molecular target: T1, Human ENaC δ, β and γ subunit (Homo sapiens, UniProt P51168+P51170+P51172)
T1 construct: expressed in transfected cells; host or cells: Xenopus laevis (African clawed frog) oocytes injected with cRNA
T1 sequence (P51172 1-802): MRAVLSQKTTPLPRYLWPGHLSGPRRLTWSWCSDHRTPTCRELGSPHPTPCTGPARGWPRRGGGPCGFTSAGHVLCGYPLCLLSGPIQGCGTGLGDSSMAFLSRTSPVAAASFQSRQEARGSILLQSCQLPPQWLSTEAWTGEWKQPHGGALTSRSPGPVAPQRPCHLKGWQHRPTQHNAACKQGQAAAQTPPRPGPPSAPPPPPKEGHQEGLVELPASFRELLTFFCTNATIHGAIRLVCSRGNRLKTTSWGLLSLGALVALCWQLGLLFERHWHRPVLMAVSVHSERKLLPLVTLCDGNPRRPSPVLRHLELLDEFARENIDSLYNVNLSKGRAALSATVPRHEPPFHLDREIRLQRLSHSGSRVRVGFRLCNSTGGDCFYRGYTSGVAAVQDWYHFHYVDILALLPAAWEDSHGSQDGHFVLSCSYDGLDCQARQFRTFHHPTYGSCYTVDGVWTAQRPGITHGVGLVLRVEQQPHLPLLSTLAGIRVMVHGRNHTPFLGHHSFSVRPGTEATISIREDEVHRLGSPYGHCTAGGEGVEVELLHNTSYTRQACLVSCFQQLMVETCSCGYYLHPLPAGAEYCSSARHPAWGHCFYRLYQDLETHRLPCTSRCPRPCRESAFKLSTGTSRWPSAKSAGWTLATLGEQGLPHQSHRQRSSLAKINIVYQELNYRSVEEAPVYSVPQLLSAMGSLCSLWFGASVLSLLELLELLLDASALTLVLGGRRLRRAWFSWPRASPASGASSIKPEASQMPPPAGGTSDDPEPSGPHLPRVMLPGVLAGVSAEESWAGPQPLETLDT
T1 sequence (P51168 1-640): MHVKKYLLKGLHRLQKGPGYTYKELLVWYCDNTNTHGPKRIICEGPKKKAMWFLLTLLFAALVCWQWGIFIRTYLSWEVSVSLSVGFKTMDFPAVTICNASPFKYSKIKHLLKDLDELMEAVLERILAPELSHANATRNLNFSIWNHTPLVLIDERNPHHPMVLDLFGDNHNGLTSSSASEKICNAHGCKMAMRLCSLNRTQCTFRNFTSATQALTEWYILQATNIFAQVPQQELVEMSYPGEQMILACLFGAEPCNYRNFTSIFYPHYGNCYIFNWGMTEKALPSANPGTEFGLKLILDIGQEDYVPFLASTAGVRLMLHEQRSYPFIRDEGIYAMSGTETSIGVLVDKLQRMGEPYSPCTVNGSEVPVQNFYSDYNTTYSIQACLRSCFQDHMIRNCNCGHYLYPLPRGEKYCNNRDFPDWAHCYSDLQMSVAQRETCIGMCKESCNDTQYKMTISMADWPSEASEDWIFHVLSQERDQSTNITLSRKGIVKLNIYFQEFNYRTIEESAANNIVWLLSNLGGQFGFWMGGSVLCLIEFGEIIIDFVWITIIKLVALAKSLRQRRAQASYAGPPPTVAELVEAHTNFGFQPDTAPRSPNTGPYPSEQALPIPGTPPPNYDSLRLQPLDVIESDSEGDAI
T1 sequence (P51170 1-649): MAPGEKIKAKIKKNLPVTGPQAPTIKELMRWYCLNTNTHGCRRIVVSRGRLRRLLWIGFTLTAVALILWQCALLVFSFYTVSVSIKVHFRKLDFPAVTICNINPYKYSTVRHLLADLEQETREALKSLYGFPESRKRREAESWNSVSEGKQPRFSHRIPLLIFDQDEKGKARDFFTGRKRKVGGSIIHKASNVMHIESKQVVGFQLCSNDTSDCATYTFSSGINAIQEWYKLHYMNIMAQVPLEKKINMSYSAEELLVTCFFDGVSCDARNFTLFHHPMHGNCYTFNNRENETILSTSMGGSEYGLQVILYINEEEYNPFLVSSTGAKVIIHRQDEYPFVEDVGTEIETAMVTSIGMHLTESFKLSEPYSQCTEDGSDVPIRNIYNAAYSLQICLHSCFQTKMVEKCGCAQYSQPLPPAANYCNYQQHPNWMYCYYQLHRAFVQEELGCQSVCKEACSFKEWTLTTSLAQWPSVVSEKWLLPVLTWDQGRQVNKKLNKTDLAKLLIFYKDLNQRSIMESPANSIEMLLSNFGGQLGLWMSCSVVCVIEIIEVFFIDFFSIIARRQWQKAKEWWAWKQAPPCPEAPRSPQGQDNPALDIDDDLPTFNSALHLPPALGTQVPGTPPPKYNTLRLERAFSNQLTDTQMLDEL
Experiment: Measurement of ENaC activation potency (MED) in ENaC-expressing oocyte, Two Electrode Voltage Clamp
Type: cell-based
Details: minimum effective dose at which current started to increase; ENaC-expressing African clawed frog oocyte; smaller MED = higher ENaC activation potency
Procedure: ENaC activation current value, namely, the inward current in ENaC-expressing oocyte was measured as follows.
According to the method described in Motonao Nakamura, Takao Shimizu: Experiment of African clawed frog oocyte, Experimental Medicine Vol. 11, No. 3, 224-232 (1993), oocyte was collected from African clawed frog, […], and the current value was measured by a Two Electrode Voltage Clamp technique. In the present invention, ND96 (96 mM NaCl, 2 mM KCl, 1 mM MgCl2, 5 mM Hepes, 1.8 mM CaCl2, pH 7.6) was used instead of MBS buffer in the above-mentioned document. Injector NANOLITER 2000 manufactured by World Precision Instruments was used for microinjection, OpusXpress 6000A manufactured by Molecular Devices was used for current value measurement by a Two Electrode Voltage Clamp technique, and Clampfit 10.2 software manufactured by Molecular Devices was used for data analysis.
Human ENaC δ, β and γ subunit genes shown by SEQ ID NOs: 1, 2 and 3, respectively, in the Sequence Listing were each cloned into a plasmid vector, and used as a template DNA for cRNA synthesis. cRNA was synthesized using MEGAscript kit manufactured by Ambion and according to the method of the manual of the manufacturer.
A mixture of the same amount of ENaC […] cRNA (0.4 to 0.8 μg/μL), and β and γ subunits cRNA (0.4 μg/μL) was injected into the oocyte of African clawed frog at […] per oocyte, and the oocyte was cultured for 16 hr-72 hr. Thereafter, the oocyte was set on a measuring apparatus OpusXpress 6000A, the electrodes were inserted into the oocyte, the voltage was clamped at a level lower by −30 mV than the resting membrane potential by a Two Electrode Voltage Clamp technique, and the current value was measured.
To measure the ENaC activation potency, oocyte was stimulated with each test compound, and the minimum effective dose (hereinafter to be abbreviated as MED) of the compound at the time point when the electric current started to increase was measured. In this case, whichever smaller value of the minimum effective dose of the stimulation compound that increased the current value by not less than 10%, and the minimum effective concentration of the compound that increased, by not less than 25%, the electric current increase value due to the stimulation by 5 μM capsazepine (CAS NO.: 138977-28-3), as compared to the current value before addition of the compound and without stimulation, was taken as MED. A smaller MED means higher ENaC activation potency.
Each test compound was directly dissolved in ND96, or first dissolved in dimethyl sulfoxide (DMSO) to 100 mM, and then prepared by diluting the solution with ND96 to a concentration used for the evaluation. The concentration of the test compound in ND96 was prepared to various concentrations within the range of 0.1 nM to 300 μm.
ND96 as a perfusion fluid was flown at a rate of 0.5 mL/min through the measuring apparatus OpusXpress 6000A on which ENaC-expressing oocyte was set, the perfusion fluid was temporarily stopped every 3 minutes to add a test compound solution (0.25 mL) dissolved in ND96 at a rate of 0.5 mL/min. In this way, the test compound was contacted with ENaC-expressing oocyte, and whether ENaC is activated by the compound was examined by measuring the current value. After addition of the test compound, feeding of the perfusion fluid was resumed to wash away the compound to be ready for the next addition of the compound.
The compound was added successively from a low concentration to a high concentration to stimulate ENaC-expressing oocyte. The concentrations actually added was, for example, 1 nM, 3 nM, 10 nM, 30 nM, 100 nM, 300 nM; 1 μM, 3 μM, 10 μm, 30 μm, 100 μm, 300 μm; 1.2 μM, 6 μM, 30 μm, 150 μm of one test compound. The compound was added from low concentrations to high concentrations at 3 min intervals. […]

MED [µM] | SMILES
0.06 | C[C@@H](NC(=S)NCCc1ccccc1O)c1cccc(O)c1 [Example 89, 1-[2-(2-hydroxyphenyl)ethyl]-3-[(R)-1-(3-hydroxyphenyl)ethyl]thiourea]
1 | C[C@@H](NC(=S)NNCc1ccccc1O)c1ccccc1 [Example 90]
1 | C[C@@H](NC(=S)Nc1c(O)cccc1O)c1ccccc1 [Example 91]
30 | COc1cccc(OC)c1/C=N/NC(=S)N[C@H](C)c1ccccc1 [Example 92, (E)-1-(2,6-dimethoxybenzylidene)-4-((R)-1-phenylethyl)thiosemicarbazide]
30 | COc1cccc(OC)c1CNNC(=S)N[C@H](C)c1ccccc1 [Example 93, 1-(2,6-dimethoxybenzyl)-4-((R)-1-phenylethyl)thiosemicarbazide]
3 to 10 | C[C@@H](NC(=S)N/N=C/c1c(O)cccc1O)c1ccccc1 [Example 94]
3 to 10 | C[C@@H](NC(=S)NNCc1c(O)cccc1O)c1ccccc1 [Example 95]
30 | COC(=O)c1ccccc1/C=N/NC(=S)N[C@H](C)c1ccccc1 [Example 96, methyl 2-{(E)-[4-((R)-1-phenylethyl)thiosemicarbazono]methyl}benzoate]
1 | CC[C@@H](NC(=S)NCCc1ccccc1O)c1ccccc1 [Example 98]
10 | CCC[C@@H](NC(=S)NCCc1ccccc1O)c1ccccc1 [Example 99]
1 | COc1ccc([C@@H](C)NC(=S)NCCc2ccccc2O)cc1OC [Example 100]
1 | O=C(O)[C@@H](NC(=S)NCCc1ccccc1)c1ccccc1 [Example 101]
1 | O=C(O)[C@@H](NC(=S)NCCc1ccccc1O)c1ccccc1 [Example 102, (S)-2-{3-[2-(2-hydroxyphenyl)ethyl]thioureido}-2-phenylacetic acid]
3 | NC(=O)[C@@H](NC(=S)NCCc1ccccc1)c1ccccc1 [Example 103]
0.06 to 0.1 | C[C@@H](NC(=S)NCCc1ccccc1O)c1ccc(O)c(O)c1 [Example 104]
0.06 to 0.1 | C[C@@H](NC(=S)NCC(O)c1ccccc1O)c1cccc(O)c1 (stereo partly drawn) [Example 105, 1-[2-(2-hydroxyphenyl)-2-hydroxyethyl]-3-[(R)-1-(3-hydroxyphenyl)ethyl]thiourea]

MED [µM] | SMILES
0.1 to 0.3 | C[C@@H](NC(=S)NC(Cc1ccccc1O)C(=O)O)c1cccc(O)c1 (stereo partly drawn) [Example 106, 2-{3-[(R)-1-(3-hydroxyphenyl)ethyl]thioureido}-3-(2-hydroxyphenyl)propanoic acid]
0.3 | C[C@@H](NC(=S)N[C@H](Cc1ccccc1)C(=O)O)c1cccc(O)c1 [Example 107]
0.3 | C[C@@H](NC(=S)N[C@@H](Cc1ccccc1)C(=O)O)c1cccc(O)c1 [Example 108]
0.3 | C[C@@H](NC(=S)N[C@H](Cc1ccc(O)cc1)C(=O)O)c1cccc(O)c1 [Example 109]
0.3 | C[C@@H](NC(=S)N[C@@H](Cc1ccc(O)cc1)C(=O)O)c1cccc(O)c1 [Example 110]
0.06 to 0.1 | C[C@@H](NC(=S)NCC(O)c1cccc(O)c1O)c1cccc(O)c1 (stereo partly shown) [Example 111]
0.1 | C[C@@H](NC(=S)NCC(O)c1cc(O)ccc1O)c1cccc(O)c1 (stereo partly shown) [Example 112]
0.3 | Cc1ccc(O)c(C(O)CNC(=S)N[C@H](C)c2cccc(O)c2)c1 (stereo partly shown) [Example 113]
0.06 to 0.1 | C[C@@H](NC(=S)NCC(O)c1cc(Cl)ccc1O)c1cccc(O)c1 (stereo partly shown) [Example 115]
0.1 | C[C@@H](NC(=S)NCC(O)c1cc(Br)ccc1O)c1cccc(O)c1 (stereo partly shown) [Example 116]
0.3 | O=C(O)c1ccccc1NC(=S)Nc1ccc(Cl)cc1 [Example 117]
0.1 | C[C@@H](NC(=S)Nc1ccccc1C(=O)O)c1cccc(O)c1 [Example 118]
3 | COC(=O)c1cc(O)ccc1NC(=S)N(C)CCc1ccccc1 [Example 119]
0.1 to 0.3 | CN(CCc1ccccc1)C(=S)Nc1ccc(O)cc1C(=O)O [Example 120]
0.3 | CN(CCc1ccccc1O)C(=S)Nc1ccc(O)cc1C(=O)O [Example 124]

From patent US20140004243A1, “SALTY TASTE ENHANCER” (AJINOMOTO CO., INC., priority 2011, published 2014)
